Tests used:
c-Src = target: T1, c-Src (Homo sapiens, UniProt P12931); assay: HotSpot in vitro kinase radiometric assay; assay type: biochemical
T1 construct: purchased Reaction Biology (HotSpot contract assay)
Method in brief: (§1)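 Radiometric catalytic assay: compounds incubated with kinase, substrate, cofactors and ³²P- or ³³P-γ-ATP. Reactions spotted onto filter paper that binds the labeled product, giving a direct measure of inhibition of catalytic activity without modified substrates or coupling enzymes.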

LYN B = target: T2, LYN B (Homo sapiens, UniProt P07948); assay: HotSpot in vitro kinase radiometric assay; assay type: biochemical
T2 construct: purchased Reaction Biology (HotSpot contract assay)
Method in brief: as §1

PDK4/PDKH4 = target: T3, PDK4/PDKH4 (Homo sapiens, UniProt Q16654); assay: HotSpot in vitro kinase radiometric assay; assay type: biochemical
T3 construct: purchased Reaction Biology (HotSpot contract assay)
Method in brief: as §1

BLK = target: T4, BLK (Homo sapiens, UniProt P51451); assay: HotSpot in vitro kinase radiometric assay; assay type: biochemical
T4 construct: purchased Reaction Biology (HotSpot contract assay)
T4 sequence (P51451 whole entry): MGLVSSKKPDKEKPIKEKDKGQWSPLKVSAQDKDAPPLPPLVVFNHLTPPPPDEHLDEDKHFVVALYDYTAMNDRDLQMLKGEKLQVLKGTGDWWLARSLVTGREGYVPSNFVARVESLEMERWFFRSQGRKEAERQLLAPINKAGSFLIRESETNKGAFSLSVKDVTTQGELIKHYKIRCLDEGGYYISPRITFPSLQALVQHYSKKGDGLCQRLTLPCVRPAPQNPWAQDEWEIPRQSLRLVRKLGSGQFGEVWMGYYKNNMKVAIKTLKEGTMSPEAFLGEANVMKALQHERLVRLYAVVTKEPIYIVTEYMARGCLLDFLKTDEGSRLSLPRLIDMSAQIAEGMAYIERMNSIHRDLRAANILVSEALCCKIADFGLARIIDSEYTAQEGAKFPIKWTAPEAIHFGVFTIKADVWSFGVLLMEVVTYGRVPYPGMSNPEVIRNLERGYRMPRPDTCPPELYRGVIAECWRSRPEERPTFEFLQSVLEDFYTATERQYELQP
Method in brief: as §1

PDK2/PDHK2 = target: T5, PDK2/PDHK2 (Homo sapiens, UniProt Q15119); assay: HotSpot in vitro kinase radiometric assay; assay type: biochemical; conditions: read-out: % inhibition at 10 uM: PDK2
T5 construct: purchased Reaction Biology (HotSpot contract assay)
Method in brief: as §1

CSF1R = system: CSF1R; parameters: method as in ChEMBL23 (accessed: 23/08/2018); conditions: average of reported values; ref ChEMBL23 (accessed: 23/08/2018); cited from earlier work
FGR = target: T6, FGR (Homo sapiens, UniProt P09769); assay: HotSpot in vitro kinase radiometric assay; assay type: biochemical
T6 construct: purchased Reaction Biology (HotSpot contract assay)

ABL1 = ABL1 (Homo sapiens, UniProt P00519); assay: HotSpot in vitro kinase radiometric assay; assay type: biochemical; parameters: purchased Reaction Biology (HotSpot contract assay)
CDK2 = system: CDK2; parameters: method as in ChEMBL23 (accessed: 23/08/2018); conditions: average of reported values; ref ChEMBL23 (accessed: 23/08/2018); cited from earlier work
RPS6KA3 = system: RPS6KA3; parameters: method as in ChEMBL23 (accessed: 23/08/2018); conditions: average of reported values; ref ChEMBL23 (accessed: 23/08/2018); cited from earlier work
YES/YES1 = target: T7, YES/YES1 (Homo sapiens, UniProt P07947); assay: HotSpot in vitro kinase radiometric assay; assay type: biochemical
T7 construct: purchased Reaction Biology (HotSpot contract assay)
T7 sequence (P07947 whole entry): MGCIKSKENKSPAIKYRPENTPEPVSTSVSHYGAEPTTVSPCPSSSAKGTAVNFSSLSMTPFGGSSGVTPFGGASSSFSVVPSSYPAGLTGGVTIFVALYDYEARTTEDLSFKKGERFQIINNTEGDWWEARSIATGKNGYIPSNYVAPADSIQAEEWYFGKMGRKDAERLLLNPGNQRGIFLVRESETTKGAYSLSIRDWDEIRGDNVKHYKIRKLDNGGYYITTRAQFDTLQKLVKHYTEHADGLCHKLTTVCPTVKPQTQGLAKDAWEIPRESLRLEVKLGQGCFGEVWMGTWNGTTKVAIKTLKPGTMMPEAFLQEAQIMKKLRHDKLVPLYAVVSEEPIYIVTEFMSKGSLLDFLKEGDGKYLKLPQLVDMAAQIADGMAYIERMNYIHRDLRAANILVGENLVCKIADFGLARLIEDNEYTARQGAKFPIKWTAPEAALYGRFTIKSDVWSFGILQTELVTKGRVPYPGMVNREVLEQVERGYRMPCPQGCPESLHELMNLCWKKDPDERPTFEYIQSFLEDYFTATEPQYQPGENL

PRKD3 = system: PRKD3; parameters: method as in ChEMBL23 (accessed: 23/08/2018); conditions: average of reported values; ref ChEMBL23 (accessed: 23/08/2018); cited from earlier work
ROCK1 = system: ROCK1; parameters: method as in ChEMBL23 (accessed: 23/08/2018); conditions: average of reported values; ref ChEMBL23 (accessed: 23/08/2018); cited from earlier work
ABL2/ARG = target: T8, ABL2/ARG (Homo sapiens, UniProt P42684); assay: HotSpot in vitro kinase radiometric assay; assay type: biochemical
T8 construct: purchased Reaction Biology (HotSpot contract assay)

HSP90AB1 = system: HSP90AB1; parameters: method as in ChEMBL23 (accessed: 23/08/2018); conditions: average of reported values; ref ChEMBL23 (accessed: 23/08/2018); cited from earlier work
TRKC = target: T9, TRKC (Homo sapiens, UniProt Q16288); assay: HotSpot in vitro kinase radiometric assay; assay type: biochemical
T9 construct: purchased Reaction Biology (HotSpot contract assay)
T9 sequence (Q16288 32-839): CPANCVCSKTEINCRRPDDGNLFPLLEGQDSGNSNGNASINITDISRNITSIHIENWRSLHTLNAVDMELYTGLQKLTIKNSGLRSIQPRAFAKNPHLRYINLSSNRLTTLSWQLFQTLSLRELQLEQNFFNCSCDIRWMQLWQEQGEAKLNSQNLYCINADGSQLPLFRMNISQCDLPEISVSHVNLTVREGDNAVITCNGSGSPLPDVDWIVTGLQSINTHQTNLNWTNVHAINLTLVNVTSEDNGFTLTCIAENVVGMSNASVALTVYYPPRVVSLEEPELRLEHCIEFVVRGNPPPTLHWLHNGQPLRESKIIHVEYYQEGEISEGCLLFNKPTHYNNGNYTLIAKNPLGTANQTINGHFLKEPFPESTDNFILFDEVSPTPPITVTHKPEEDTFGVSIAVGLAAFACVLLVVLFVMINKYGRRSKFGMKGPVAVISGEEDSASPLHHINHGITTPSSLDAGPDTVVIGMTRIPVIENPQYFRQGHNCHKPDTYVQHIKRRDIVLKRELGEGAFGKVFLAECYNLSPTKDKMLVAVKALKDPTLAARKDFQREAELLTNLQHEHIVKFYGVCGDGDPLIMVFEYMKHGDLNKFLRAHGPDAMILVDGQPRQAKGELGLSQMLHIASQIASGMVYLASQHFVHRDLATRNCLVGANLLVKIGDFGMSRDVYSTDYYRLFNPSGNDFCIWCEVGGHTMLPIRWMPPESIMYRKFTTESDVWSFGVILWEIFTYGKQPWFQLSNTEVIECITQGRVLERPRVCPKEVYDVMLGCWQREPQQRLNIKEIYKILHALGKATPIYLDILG

TRKA = target: T10, TRKA (Homo sapiens, UniProt P04629); assay: HotSpot in vitro kinase radiometric assay; assay type: biochemical
T10 construct: purchased Reaction Biology (HotSpot contract assay)
T10 sequence (P04629 33-796): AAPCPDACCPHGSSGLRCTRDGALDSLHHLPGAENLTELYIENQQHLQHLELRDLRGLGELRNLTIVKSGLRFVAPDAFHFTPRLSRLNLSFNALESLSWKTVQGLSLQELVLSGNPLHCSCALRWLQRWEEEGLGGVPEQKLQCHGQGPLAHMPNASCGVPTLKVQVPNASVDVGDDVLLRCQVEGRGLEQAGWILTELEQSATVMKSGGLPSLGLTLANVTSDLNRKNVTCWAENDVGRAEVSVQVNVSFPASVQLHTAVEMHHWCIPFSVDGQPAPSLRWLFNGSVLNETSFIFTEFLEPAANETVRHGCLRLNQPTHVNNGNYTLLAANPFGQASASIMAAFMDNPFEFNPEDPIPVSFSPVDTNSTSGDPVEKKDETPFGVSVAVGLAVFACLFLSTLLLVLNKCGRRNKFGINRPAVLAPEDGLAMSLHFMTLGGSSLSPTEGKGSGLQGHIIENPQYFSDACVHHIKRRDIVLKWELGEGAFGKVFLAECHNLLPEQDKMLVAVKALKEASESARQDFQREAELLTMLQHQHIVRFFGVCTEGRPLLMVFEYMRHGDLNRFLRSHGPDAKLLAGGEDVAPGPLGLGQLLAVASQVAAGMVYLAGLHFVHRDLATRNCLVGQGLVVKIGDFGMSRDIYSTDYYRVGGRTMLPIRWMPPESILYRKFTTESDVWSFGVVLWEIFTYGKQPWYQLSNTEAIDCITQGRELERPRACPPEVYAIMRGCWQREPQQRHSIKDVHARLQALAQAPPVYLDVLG
Method in brief: as §1

PASK = target: T11, PASK (Homo sapiens, UniProt Q96RG2); assay: HotSpot in vitro kinase radiometric assay; assay type: biochemical
T11 construct: purchased Reaction Biology (HotSpot contract assay)
T11 sequence (Q96RG2 whole entry): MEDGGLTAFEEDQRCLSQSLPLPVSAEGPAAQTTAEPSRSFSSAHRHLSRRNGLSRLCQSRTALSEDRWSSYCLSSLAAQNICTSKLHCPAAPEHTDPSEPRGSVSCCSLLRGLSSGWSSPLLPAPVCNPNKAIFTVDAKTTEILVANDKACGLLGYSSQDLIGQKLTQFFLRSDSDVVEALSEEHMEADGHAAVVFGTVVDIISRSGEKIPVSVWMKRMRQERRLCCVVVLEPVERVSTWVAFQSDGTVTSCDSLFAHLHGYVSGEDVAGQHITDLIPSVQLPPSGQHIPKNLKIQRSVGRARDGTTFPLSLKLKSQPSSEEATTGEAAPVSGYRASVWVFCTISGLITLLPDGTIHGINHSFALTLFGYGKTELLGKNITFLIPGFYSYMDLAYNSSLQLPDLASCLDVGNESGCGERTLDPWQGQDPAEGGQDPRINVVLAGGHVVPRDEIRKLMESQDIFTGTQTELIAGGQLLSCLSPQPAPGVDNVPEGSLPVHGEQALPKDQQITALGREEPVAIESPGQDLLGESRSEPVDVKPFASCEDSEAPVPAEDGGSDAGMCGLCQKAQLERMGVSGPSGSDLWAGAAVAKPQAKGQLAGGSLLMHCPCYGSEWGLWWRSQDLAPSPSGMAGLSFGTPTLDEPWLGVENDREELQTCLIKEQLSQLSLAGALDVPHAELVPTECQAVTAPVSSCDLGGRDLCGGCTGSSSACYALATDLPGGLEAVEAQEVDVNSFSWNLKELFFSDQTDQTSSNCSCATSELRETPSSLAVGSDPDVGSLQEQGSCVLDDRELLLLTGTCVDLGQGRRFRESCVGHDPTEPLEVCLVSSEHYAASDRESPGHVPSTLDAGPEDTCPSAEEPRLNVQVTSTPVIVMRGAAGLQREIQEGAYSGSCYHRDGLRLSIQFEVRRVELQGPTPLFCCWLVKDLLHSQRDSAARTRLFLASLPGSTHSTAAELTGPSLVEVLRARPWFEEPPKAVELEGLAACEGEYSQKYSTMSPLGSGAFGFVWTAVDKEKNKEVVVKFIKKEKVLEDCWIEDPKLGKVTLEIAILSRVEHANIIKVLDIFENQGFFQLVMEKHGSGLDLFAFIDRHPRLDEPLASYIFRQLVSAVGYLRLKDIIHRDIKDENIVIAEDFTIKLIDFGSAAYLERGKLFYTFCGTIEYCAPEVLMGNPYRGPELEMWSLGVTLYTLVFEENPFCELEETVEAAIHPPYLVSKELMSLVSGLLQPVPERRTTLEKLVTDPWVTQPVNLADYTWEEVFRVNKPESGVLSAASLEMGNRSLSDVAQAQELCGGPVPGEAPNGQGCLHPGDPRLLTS
Method in brief: as §1

FYN = target: T12, FYN (Homo sapiens, UniProt P06241); assay: HotSpot in vitro kinase radiometric assay; assay type: biochemical
T12 construct: purchased Reaction Biology (HotSpot contract assay)
T12 sequence (P06241 whole entry): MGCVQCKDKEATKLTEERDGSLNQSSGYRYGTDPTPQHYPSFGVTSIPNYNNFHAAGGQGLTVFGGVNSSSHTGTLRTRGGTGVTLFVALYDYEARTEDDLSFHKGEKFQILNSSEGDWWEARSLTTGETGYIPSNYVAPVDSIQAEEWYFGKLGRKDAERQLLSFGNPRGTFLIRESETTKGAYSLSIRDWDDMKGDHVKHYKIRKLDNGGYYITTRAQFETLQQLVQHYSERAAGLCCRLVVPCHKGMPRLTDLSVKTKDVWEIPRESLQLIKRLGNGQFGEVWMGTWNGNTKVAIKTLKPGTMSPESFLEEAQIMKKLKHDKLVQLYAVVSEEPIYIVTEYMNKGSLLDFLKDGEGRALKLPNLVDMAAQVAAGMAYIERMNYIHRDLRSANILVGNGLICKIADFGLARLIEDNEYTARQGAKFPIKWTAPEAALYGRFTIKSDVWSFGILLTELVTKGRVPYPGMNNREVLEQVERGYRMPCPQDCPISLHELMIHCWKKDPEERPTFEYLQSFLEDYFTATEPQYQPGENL

LCK = target: T13, LCK (Homo sapiens, UniProt P06239); assay: HotSpot in vitro kinase radiometric assay; assay type: biochemical
T13 construct: purchased Reaction Biology (HotSpot contract assay)
T13 sequence (P06239 whole entry): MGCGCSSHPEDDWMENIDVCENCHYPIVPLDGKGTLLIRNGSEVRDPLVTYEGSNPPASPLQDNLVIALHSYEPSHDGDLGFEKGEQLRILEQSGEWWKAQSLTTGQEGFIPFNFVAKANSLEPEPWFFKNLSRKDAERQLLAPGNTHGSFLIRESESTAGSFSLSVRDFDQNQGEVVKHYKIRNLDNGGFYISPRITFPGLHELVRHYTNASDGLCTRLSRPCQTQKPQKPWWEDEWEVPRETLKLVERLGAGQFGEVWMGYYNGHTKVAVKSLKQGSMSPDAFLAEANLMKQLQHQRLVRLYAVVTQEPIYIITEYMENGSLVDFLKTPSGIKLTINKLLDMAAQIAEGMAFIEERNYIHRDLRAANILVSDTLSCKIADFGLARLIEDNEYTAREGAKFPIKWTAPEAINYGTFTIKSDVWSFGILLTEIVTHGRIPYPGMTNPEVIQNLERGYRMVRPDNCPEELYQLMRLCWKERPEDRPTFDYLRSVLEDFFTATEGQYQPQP

DDR1 = DDR1 (Homo sapiens, UniProt Q08345); assay: HotSpot in vitro kinase radiometric assay; assay type: biochemical; parameters: purchased Reaction Biology (HotSpot contract assay)
ROCK2 = system: ROCK2; parameters: method as in ChEMBL23 (accessed: 23/08/2018); conditions: average of reported values; ref ChEMBL23 (accessed: 23/08/2018); cited from earlier work
PRKD2 = system: PRKD2; parameters: method as in ChEMBL23 (accessed: 23/08/2018); conditions: average of reported values; ref ChEMBL23 (accessed: 23/08/2018); cited from earlier work
PIM1 = system: PIM1; parameters: method as in ChEMBL23 (accessed: 23/08/2018); conditions: average of reported values; ref ChEMBL23 (accessed: 23/08/2018); cited from earlier work
PEAK1 = target: T14, PEAK1 (Homo sapiens, UniProt Q9H792); assay: HotSpot in vitro kinase radiometric assay; assay type: biochemical
T14 construct: purchased Reaction Biology (HotSpot contract assay)

CCNC(=O)c1n[nH]c(-c2cc(Cl)c(O)cc2O)c1-c1ccc(OC)cc1 [VER-49009]
remaining activity at 10 µM (c-Src; read-out: % Enzyme Activity (relative to DMSO controls), c-Src, 10uM, ATP 15 uM, Data 1, Data 2): 65.9%
inhibition at 10 µM (c-Src; read-out: % inhibition at 10 uM: SRC): 35 ± 1%
remaining activity at 10 µM (LYN B; read-out: % Enzyme Activity (relative to DMSO controls), LYN B, 10uM, ATP 20 uM, Data 1, Data 2): 108%
inhibition at 10 µM (LYN B; read-out: % inhibition at 10 uM: LYN B): -6 ± 3%
remaining activity at 10 µM (PDK4/PDKH4; read-out: % Enzyme Activity (relative to DMSO controls), PDK4/PDKH4, 10uM, ATP 30 uM, Data 1, Data 2): 15.1%
inhibition at 10 µM (PDK4/PDKH4; read-out: % inhibition at 10 uM: PDK4): 86 ± 1%
remaining activity at 10 µM (BLK; read-out: % Enzyme Activity (relative to DMSO controls), BLK, 10uM, ATP 10 uM, Data 1, Data 2): 70.1%
inhibition at 10 µM (BLK; read-out: % inhibition at 10 uM: BLK): 24 ± 8%
inhibition at 10 µM (PDK2/PDHK2): 95 ± 5%
pActivity, CSF1R (CSF1R): 5.9
remaining activity at 10 µM (FGR; read-out: % Enzyme Activity (relative to DMSO controls), FGR, 10uM, ATP 50 uM, Data 1, Data 2): 99%
inhibition at 10 µM (FGR; read-out: % inhibition at 10 uM: FGR): 1%
remaining activity at 10 µM (ABL1; read-out: % Enzyme Activity (relative to DMSO controls), ABL1, 10uM, ATP 40 uM, Data 1, Data 2): 80.2%
inhibition at 10 µM (ABL1; read-out: % inhibition at 10 uM: ABL1): 14 ± 8%
pActivity, CDK2 (CDK2): 5.2
pActivity, RPS6KA3 (RPS6KA3): 5.5
remaining activity at 10 µM (YES/YES1; read-out: % Enzyme Activity (relative to DMSO controls), YES/YES1, 10uM, ATP 50 uM, Data 1, Data 2): 77.2%
inhibition at 10 µM (YES/YES1; read-out: % inhibition at 10 uM: YES): 24 ± 1%
pActivity, PRKD3 (PRKD3): 5.8
pActivity, ROCK1 (ROCK1): 5.4
remaining activity at 10 µM (ABL2/ARG; read-out: % Enzyme Activity (relative to DMSO controls), ABL2/ARG, 10uM, ATP 30 uM, Data 1, Data 2): 101%
inhibition at 10 µM (ABL2/ARG; read-out: % inhibition at 10 uM: ABL2): 1 ± 3%
pActivity, HSP90AB1 (HSP90AB1): 7.6
remaining activity at 10 µM (TRKC; read-out: % Enzyme Activity (relative to DMSO controls), TRKC, 10uM, ATP 100 uM, Data 1, Data 2): 68.4%
inhibition at 10 µM (TRKC; read-out: % inhibition at 10 uM: TRKC): 28 ± 5%
remaining activity at 10 µM (TRKA; read-out: % Enzyme Activity (relative to DMSO controls), TRKA, 10uM, ATP 100 uM, Data 1, Data 2): 20.6%
inhibition at 10 µM (TRKA; read-out: % inhibition at 10 uM: TRKA): 79 ± 1%
remaining activity at 10 µM (PASK; read-out: % Enzyme Activity (relative to DMSO controls), PASK, 10uM, ATP 50 uM, Data 1, Data 2): 98%
inhibition at 10 µM (PASK; read-out: % inhibition at 10 uM: PASK): 2%
remaining activity at 10 µM (FYN; read-out: % Enzyme Activity (relative to DMSO controls), FYN, 10uM, ATP 30 uM, Data 1, Data 2): 89.2%
inhibition at 10 µM (FYN; read-out: % inhibition at 10 uM: FYN): 13 ± 3%
remaining activity at 10 µM (LCK; read-out: % Enzyme Activity (relative to DMSO controls), LCK, 10uM, ATP 15 uM, Data 1, Data 2): 72.8%
inhibition at 10 µM (LCK; read-out: % inhibition at 10 uM: LCK): 25 ± 3%
remaining activity at 10 µM (DDR1; read-out: % Enzyme Activity (relative to DMSO controls), DDR1, 10uM, ATP 100 uM, Data 1, Data 2): 65.8%
inhibition at 10 µM (DDR1; read-out: % inhibition at 10 uM: DDR1): 29 ± 8%
pActivity, ROCK2 (ROCK2): 5.6
pActivity, PRKD2 (PRKD2): 5.8
pActivity, PIM1 (PIM1): 5.6
remaining activity at 10 µM (PEAK1; read-out: % Enzyme Activity (relative to DMSO controls), PEAK1, 10uM, ATP 30 uM, Data 1, Data 2): 75.5%
inhibition at 10 µM (PEAK1; read-out: % inhibition at 10 uM: PEAK1): 24%
